Assay results reported in publication PMC4492727 (Pharmacology Research & Perspectives, 2015).
Values after ≈ are worked out from the molar mass of the structure shown. Like-named read-outs stand apart in the source and are kept apart here.

Tests used:
[1] = system: P-gp; conditions: read-out: IC50 as inhibitor of P-gp; ref Weiss et al. [2010]; cited from earlier work
[2] = system: MDCK II (MDR1) cells; format: in vitro ADME, canine (cells expressing human P-gp); conditions: 2.4 μmol/L telmisartan
[3] = system: MDCK II (MDR1) cells; assay: Bidirectional transepithelial transport across MDCK II
[4] = system: P-gp activity of the murine cell line P388/dx; conditions: P388/dx cells; ref Weiss et al. [2010]; cited from earlier work
[5] = system: MDCK II cells transfected with the human MDR1 gene; conditions: 5 μmol/L telmisartan, 30 min preincubation; ref Chang et al. ([2006]); cited from earlier work
[6] = cited from earlier work

In the case of `CCCc1nc2c(C)cc(-c3nc4ccccc4n3C)cc2n1Cc1ccc(-c2ccccc2C(=O)O)cc1` [telmisartan], the IC50 [1] is given as 380 nM, the “effect on amount of [3H]-digoxin present in cells and filter” value [2] is given as “no difference” and the “increase in concentration of verapamil in cells compared to untreated control” value [2] is given as about 26%. The “effect on transepithelial efflux of [3H]-verapamil” value ([3]; 2.4 μmol/L telmisartan) was “minor inhibition”, the “effect on transepithelial transport of [3H]-digoxin” value ([3]; 2.4 μmol/L telmisartan) was “does not affect” and the “effect on verapamil transport in pilot experiments” value ([3]; low concentrations of telmisartan, data not shown) was “no effects”. The “P-gp inhibitory effect, calcein AM uptake” value [4] was “inhibited”, the “inhibition of the efflux transport of digoxin” value [5] was “able to inhibit” and the aqueous solubility ([6]; ref Park et al. [2013]) was 0.45 µM (≈ 0.232 µg/mL). For the same compound, the aqueous solubility ([6]; ref Tran et al. [2008]) was 0.17 µM (≈ 0.0875 µg/mL).
